Data taken from patent US20190105344A1, “ORAL MOLECULAR IODINE COMPOSITION AND METHOD” (Iogen, LLC, priority 2016, published 2019).
Where two headings read alike, the source gives them in different places.

Tests used:
[1] = male rats, subchronic administration, cited from earlier work
[2] = system: N-methyl-N-nitrosourea-induced mammary carcinogenesis; conditions: in vivo; cited from earlier work
[3] = Iodination of arachidonic acid by molecular iodine with additional iodate (thiosulfate titration, Example 3); format: physicochemical
Procedure: A stock solution of 10 mg/ml arachidonic acid in ethanol was prepared. […] A control vial was prepared that had no arachidonic acid. An iodate/iodide solution was prepared separately by adding NaIO3 (Sigma-Aldrich, St. Louis, Mo.; part number […]) and NaI (Sigma-Aldrich, St.

[4] = Iodination of arachidonic acid by molecular iodine (thiosulfate titration, Example 1); format: physicochemical; conditions: 0.01N sodium thiosulfate titration
Procedure: A stock solution of 10 mg/ml arachidonic acid in ethanol was prepared. […] A control vial was prepared that had no arachidonic acid.
An iodate/iodide solution was prepared separately by adding NaIO3 (Sigma-Aldrich, St. Louis, Mo.; part number S4007-500G) and NaI (Sigma-Aldrich, St. Louis, Mo.; part number […]) to final concentrations of 3.16 and 20.55 mM, respectively, in 0.64M sodium carbonate in water.
Vials were then titrated with 0.01N sodium thiosulfate solution until the samples went from dark blue to colorless.
Since the oxidation of iodide after acidification is diffusion controlled, the reaction of iodate with iodide is essentially instantaneous and five moles of iodide reacts with each mole of iodate to form 3 moles of molecular iodine.
The ratio of iodide to iodate used in this experiment insured that there was unreacted […] present in the solution after acidification with HCl.

[5] = cited from earlier work
[6] = Procedure: An iodate/iodide solution was prepared separately by adding sodium iodate (Sigma-Aldrich, St. Louis, Mo.; part number S4007-500G) and sodium iodide (Sigma Aldrich, St. Louis, Mo.; part number 383112-100G) to final concentrations of 3.16 and 20.55 mM, respectively, in 0.64M sodium carbonate in water. One mL of the iodate/iodide solution was then added to the vials followed by 100 μl of 0.5% starch indicator.
This additional sodium iodate was added to provide additional oxidant to re-oxidize any iodide that might be formed by the iodination of arachidonic acid.
Two mL of 1N HCl was added and a visual observation of the samples was recorded. Vials were then titrated with 0.01N sodium thiosulfate solution until the samples went from dark blue to colorless.

[7] = Subchronic administration to male rats, thyroid weight; format: in vivo; conditions: mammals; iodide vs molecular iodine

## II [molecular iodine]
[1]; even at 100 mg/kg
  thyroid weight: did not affect thyroid weight
[2]
  formation of carcinogen induced tumors: inhibits

## CCCCC/C=C\C/C=C\C/C=C\C/C=C\CCCC(=O)O [Arachidonic Acid, (5Z,8Z,11Z,14Z)-5,8,11,14-eicosatetraenoic acid]
[3]; 1 mg arachidonic acid, additional iodate
  decrease of molecular iodine observed from Sample 3 to Sample 4: 0.50 ∞mol
[3]; one mg arachidonic acid, Sample 2 vs Sample 1, unit of the source corrected
  molecular iodine reacted with: 1 µmol
[4]; 0.3 mg arachidonic acid
  Thiosulfate: 1.75 mL
[4]; 1.0 mg arachidonic acid
  Thiosulfate: 1.62 mL
[5]; bodybuilders, 1500 mg
  systemic inflammation: may reduce systemic inflammation
[5]; daily oral administration of up to 1500 mg
  toxicity or safety risk: no toxicity or safety risk
[5]; in vivo
  carcinogenicity: not carcinogenic

## C/C=C/C=C/C(=O)O [Sorbic Acid, sorbic acid, reference compound]
[3]; sample 2: 1 mg acid, no additional NaIO3
  Thiosulfate: 1.70 mL
[3]; sample 4: 1 mg acid, additional NaIO3 188 ∝g
  Thiosulfate: 2.10 mL
[6]; sample 2: 1 mg sorbic acid, no additional NaIO3
  Thiosulfate: 1.45 mL
[6]; sample 4: 1 mg sorbic acid, additional NaIO3 188 ∝g
  Thiosulfate: 1.60 mL

## I [iodide]
[1]; 10 mg/kg
  thyroid weight: increased
[2]
  formation of carcinogen induced tumors: not
[7]
  concentration affecting thyroid weight, less than for a comparable effect from molecular iodine: 10 fold
